Common to all, as to assay type: functional
Assay [1] concerns Escherichia coli. Nature of the assay: Antimicrobial activity against Escherichia coli J53 by CLSI agar dilution method. Background: In agar dilution the substance is mixed into plates at graded concentrations.
Assay [2] concerns Escherichia coli. Nature of the assay: Antimicrobial activity against Escherichia coli J53 transconjugated with Proteus mirabilis pHS10 carrying qnrC gene by CLSI agar dilution method.
Assay [3] has as its system Proteus mirabilis. Nature of the assay: Antimicrobial activity against Proteus mirabilis 06-489 isolated from infected human urinary tract by CLSI agar dilution method.
Assay [4] relates to Proteus mirabilis. As to the kind of experiment: Antimicrobial activity against Proteus mirabilis 06-489 isolated from infected human urinary tract by Etest. As to conditions: 06-489, Urine.
Assay [5] deals with Escherichia coli. Nature of the assay: Antimicrobial activity against Escherichia coli J53 transconjugated with Proteus mirabilis pHS10 carrying qnrC gene by Etest.
Assay [6] has as its system Escherichia coli. As to the kind of experiment: Antimicrobial activity against Escherichia coli TOP10 harboring pHS12 carrying TTG to ATG substituted qnrC gene by CLSI agar dilution method.
Assay [7] relates to Escherichia coli. As to the kind of experiment: Antimicrobial activity against Escherichia coli J53 by Etest.
Assay [8] relates to Escherichia coli. As to the kind of experiment: Antimicrobial activity against Escherichia coli TOP10 harboring pHS12 carrying ATT to ATG substituted qnrC gene by CLSI agar dilution method.
Assay [9] relates to Escherichia coli. As to the kind of experiment: Antimicrobial activity against Escherichia coli TOP10 harboring pHS12 carrying ATG to ACG substituted qnrC gene by CLSI agar dilution method.
For assay [10], the system named is Escherichia coli. As to the kind of experiment: Antimicrobial activity against Escherichia coli ATCC 25922 by CLSI agar dilution method.
Assay [11] relates to Escherichia coli. Nature of the assay: Antimicrobial activity against Escherichia coli TOP10 harboring pHS12 carrying TTG to TTA substituted qnrC gene by CLSI agar dilution method.
For assay [12], the system named is Escherichia coli. As to the kind of experiment: Antimicrobial activity against Escherichia coli TOP10 harboring pHS12 carrying qnrC gene by CLSI agar dilution method.
For assay [13], the system named is Escherichia coli. Nature of the assay: Antimicrobial activity against Escherichia coli TOP10 harboring pHS12 carrying ATT to TTA substituted qnrC gene by CLSI agar dilution method.
Assay [14] concerns Escherichia coli. As to the kind of experiment: Antimicrobial activity against Escherichia coli TOP10 harboring pHS12 carrying TTG to TCG substituted qnrC gene by CLSI agar dilution method.

≈ marks a conversion by molar mass, not a printed value.

In general, MIC refers to the lowest concentration found to suppress growth. High values mean a less susceptible organism, low ones a more susceptible organism. Consider `NCC[C@H](O)C(=O)N[C@@H]1C[C@H](N)[C@@H](O[C@H]2O[C@H](CN)[C@@H](O)[C@H](O)[C@H]2O)[C@H](O)[C@H]1O[C@H]1O[C@H](CO)[C@@H](O)[C@H](N)[C@H]1O` [AMIKACIN], for which the MIC was determined as 0.25 µg/mL (≈ 0.427 µM) in the assay with Escherichia coli [1]; 0.5 µg/mL (≈ 0.854 µM) in the assay with Escherichia coli [2]; 8 µg/mL (≈ 13.7 µM) with Proteus mirabilis [3] (06-489, Urine).

As to `CC1(C)S[C@@H]2[C@H](NC(=O)[C@H](N)c3ccccc3)C(=O)N2[C@H]1C(=O)O` [AMPICILLIN], the MIC in the assay on Escherichia coli [1] is 4 µg/mL (≈ 11.4 µM); against Escherichia coli [2], 128 µg/mL (≈ 366 µM); against Proteus mirabilis [3] (06-489, Urine), 64 µg/mL (≈ 183 µM).

As to `CO/N=C(\C(=O)N[C@@H]1C(=O)N2C(C(=O)O)=C(COC(C)=O)CS[C@H]12)c1csc(N)n1` [CEFOTAXIME], the MIC was not above 0.06 µg/mL against Escherichia coli [1]; not above 0.06 µg/mL against Escherichia coli [2]; not above 0.06 µg/mL against Proteus mirabilis [3] (06-489, Urine).

For `CO[C@@]1(NC(=O)Cc2cccs2)C(=O)N2C(C(=O)O)=C(COC(N)=O)CS[C@@H]21` [CEFOXITIN], the MIC with Escherichia coli [1] turned out to be 4 µg/mL (≈ 9.36 µM); in the assay with Escherichia coli [2], 4 µg/mL (≈ 9.36 µM); with Proteus mirabilis [3] (06-489, Urine), 2 µg/mL (≈ 4.68 µM).

As to `CC(C)(O/N=C(\C(=O)N[C@@H]1C(=O)N2C(C(=O)[O-])=C(C[n+]3ccccc3)CS[C@H]12)c1csc(N)n1)C(=O)O` [CEFTAZIDIME], the MIC was not above 0.06 µg/mL against Escherichia coli [1]; 0.06 µg/mL (≈ 0.11 µM) against Escherichia coli [2]; not above 0.06 µg/mL against Proteus mirabilis [3] (06-489, Urine).

For the compound `CO/N=C(\C(=O)N[C@@H]1C(=O)N2C(C(=O)O)=C(COC(N)=O)CS[C@H]12)c1ccco1` [CEFUROXIME], the MIC came out at 8 µg/mL (≈ 18.9 µM) in the assay with Escherichia coli [1]; 8 µg/mL (≈ 18.9 µM) with Escherichia coli [2]; 4 µg/mL (≈ 9.43 µM) against Proteus mirabilis [3] (06-489, Urine).

In the case of `O=C(N[C@H](CO)[C@H](O)c1ccc([N+](=O)[O-])cc1)C(Cl)Cl` [CHLORAMPHENICOL], the MIC in the assay with Escherichia coli [1] was determined as 8 µg/mL (≈ 24.8 µM); in the assay on Escherichia coli [2] it was 64 µg/mL (≈ 198 µM); in the assay on Proteus mirabilis [3] (06-489, Urine), 16 µg/mL (≈ 49.5 µM).

In the case of `O=C(O)c1cn(C2CC2)c2cc(N3CCNCC3)c(F)cc2c1=O` [CIPROFLOXACIN], the MIC against Proteus mirabilis [4] was determined as 0.25 µg/mL (≈ 0.754 µM).

Turning to `C[C@H]1COc2c(N3CCN(C)CC3)c(F)cc3c(=O)c(C(=O)O)cn1c23.C[C@H]1COc2c(N3CCN(C)CC3)c(F)cc3c(=O)c(C(=O)O)cn1c23.O` [LEVOFLOXACIN], the MIC was found to be 0.25 µg/mL in the assay on Escherichia coli [5]; 0.19 µg/mL in the assay on Escherichia coli [6]; 0.023 µg/mL against Escherichia coli [7]; 0.125 µg/mL against Escherichia coli [8]; 0.19 µg/mL in the assay on Escherichia coli [9]; 0.006 µg/mL with Escherichia coli [10]. For the same compound, the MIC in the assay on Proteus mirabilis [4] was 0.5 µg/mL; against Escherichia coli [11] it was 0.006 µg/mL; in the assay on Escherichia coli [12], 0.19 µg/mL; against Escherichia coli [13], 0.125 µg/mL.

Take `CCn1cc(C(=O)O)c(=O)c2ccc(C)nc21` [NALIDIXIC ACID]: the MIC against Escherichia coli [5] was found to be 16 µg/mL (≈ 68.9 µM); in the assay with Escherichia coli [6] it was 4 µg/mL (≈ 17.2 µM); in the assay on Escherichia coli [7] it was 4 µg/mL (≈ 17.2 µM); with Escherichia coli [8] it was 4 µg/mL (≈ 17.2 µM); with Escherichia coli [9], 4 µg/mL (≈ 17.2 µM); with Escherichia coli [10], 1 µg/mL (≈ 4.31 µM). The MIC in the assay with Proteus mirabilis [4] worked out at 16 µg/mL (≈ 68.9 µM); against Escherichia coli [11], 1 µg/mL (≈ 4.31 µM); in the assay on Escherichia coli [14], 1.5 µg/mL (≈ 6.46 µM); against Escherichia coli [12], 4 µg/mL (≈ 17.2 µM); against Escherichia coli [13] it was 3 µg/mL (≈ 12.9 µM).

For the compound `Cc1cc(NS(=O)(=O)c2ccc(N)cc2)no1` [SULFAMETHOXAZOLE], the MIC was 16 µg/mL (≈ 63.2 µM) against Escherichia coli [1]; more than 1020 µg/mL against Escherichia coli [2]; more than 1020 µg/mL in the assay on Proteus mirabilis [3] (06-489, Urine).

As to `CN(C)[C@@H]1C(O)=C(C(N)=O)C(=O)[C@@]2(O)C(O)=C3C(=O)c4c(O)cccc4[C@@](C)(O)[C@H]3C[C@@H]12` [TETRACYCLINE], the minimum inhibitory concentration (MIC) in the assay with Escherichia coli [1] is 1 µg/mL (≈ 2.25 µM); against Escherichia coli [2] it was 128 µg/mL (≈ 288 µM); against Proteus mirabilis [3] (06-489, Urine), 128 µg/mL (≈ 288 µM).

In the case of `COc1cc(Cc2cnc(N)nc2N)cc(OC)c1OC` [TRIMETHOPRIM], the MIC was 0.25 µg/mL (≈ 0.861 µM) with Escherichia coli [1]; more than 128 µg/mL in the assay on Escherichia coli [2]; more than 128 µg/mL in the assay on Proteus mirabilis [3] (06-489, Urine).

For GENTAMICIN, the MIC against Escherichia coli [1] turned out to be 0.125 µg/mL; against Escherichia coli [2], 4 µg/mL; with Proteus mirabilis [3] (Urine), 16 µg/mL.

The record behind these values is ChEMBL document CHEMBL1649187, “New plasmid-mediated quinolone resistance gene, qnrC, found in a clinical isolate of Proteus mirabilis” (2009).
